# Measured values as given in US7968725B2, “Pyridinyl modulators of γ-secretase” (Janssen Pharmaceutica N.V., priority 2008, dated 2011).
# Biological target: T1, γ-secretase (Homo sapiens, UniProt P49768)
# T1 construct: endogenous in cells; host or cells: SKNBE2 cells carrying APP 695 wild type
# Assay: Screening for γ-secretase-modulating activity in SKNBE2 cells carrying the APP 695-wild type (assay per Citron et al 1997)
# Format: cell-based
# Details: @ 1 uM; SKNBE2 cells carrying APP 695-wild type
# Protocol: Screening of the Compounds of the Invention for γ-Secretase-Modulating Activity
# Screening was carried out using SKNBE2 cells carrying the APP 695-wild type, grown in DMEM/NUT-mix F12 (HAM) provided by Gibco (cat no. 31330-38) containing 5% Serum/Fe supplemented with 1% non-essential amino acids.
# Cells were grown to near confluency.
# The screening was performed using the assay as described in Citron et al (1997) Nature Medicine 3: 67.
row,SMILES,inhibition at 1 µM [%]
1,"CC(C)CC(C(=O)O)c1cc(-c2ccc(C(F)(F)F)cc2)nc(-c2cc3ccccc3s2)c1 (stereo not drawn) [Example 29, 2-[2-Benzo[b]thiophen-2-yl-6-(4-trifluoromethyl-phenyl)-pyridin-4-yl]-4-methyl-pentanoic acid]",57
2,"CC(C)CC(C(=O)O)c1cc(-c2ccc(C(F)(F)F)cc2)nc(-c2cc(F)ccc2F)c1 (stereo not drawn) [Example 25, 2-[2-(2,5-Difluoro-phenyl)-6-(4-trifluoromethyl-phenyl)-pyridin-4-yl]-4-methyl-pentanoic acid]",19
3,"CC(C)CC(C(=O)O)c1cc(-c2ccc(C(F)(F)F)cc2)nc(-c2ccc3c(c2)OCO3)c1 (stereo not drawn) [Example 33, 2-[2-Benzo[1,3]dioxol-5-yl-6-(4-trifluoromethyl-phenyl)-pyridin-4-yl]-4-methyl-pentanoic acid]",20
4,"CC(C)CC(C(=O)O)c1cc(-c2ccc(C(F)(F)F)cc2)nc(-c2ccc3ccccc3c2)c1 (stereo not drawn) [Example 14, 4-Methyl-2-[2-naphthalen-2-yl-6-(4-trifluoromethyl-phenyl)-pyridin-4-yl]-pentanoic acid]",34
5,"O=C(O)Cc1cc(-c2ccc(C(F)(F)F)cc2)nc(N(CCC2CCCCC2)c2ccc(C(F)(F)F)cc2)c1 [Example 43, [2-[(2-Cyclohexyl-ethyl)-(4-trifluoromethyl-phenyl)-amino]-6-(4-trifluoromethyl-phenyl)-pyridin-4-yl]-acetic acid]",56
6,"CC(C)CC(C(=O)O)c1cc(-c2ccc(C(F)(F)F)cc2)nc(-c2ccc(C(F)(F)F)cc2C(F)(F)F)c1 (stereo not drawn) [Example 17, 2-[2-(2,4-Bis-trifluoromethyl-phenyl)-6-(4-trifluoromethyl-phenyl)-pyridin-4-yl]-4-methyl-pentanoic acid]",64
7,"CC(C)CC(C(=O)O)c1cc(-c2ccc(C(F)(F)F)cc2)nc(-c2ccc(S(C)(=O)=O)cc2)c1 (stereo not drawn) [Example 39, 2-[2-(4-Methanesulfonyl-phenyl)-6-(4-trifluoromethyl-phenyl)-pyridin-4-yl]-4-methyl-pentanoic acid]",18

# The remaining lines, values ahead:
row,inhibition at 1 µM [%],SMILES
1,22,"CC(C)CCN(c1ccc(C(C)(C)C)cc1)c1cc(C(CC(C)C)C(=O)O)cc(-c2ccc(C(F)(F)F)cc2)n1 (stereo not drawn) [Example 46, 2-[2-[(4-tert-Butyl-phenyl)-(3-methyl-butyl)-amino]-6-(4-trifluoromethyl-phenyl)-pyridin-4-yl]-4-methyl-pentanoic acid]"
2,36,"CC(C)CCN(c1ccc(C(F)(F)F)cc1)c1cc(CC(=O)O)cc(-c2ccc(C(F)(F)F)cc2)n1 [Example 42, [2-[(3-Methyl-butyl)-(4-trifluoromethyl-phenyl)-amino]-6-(4-trifluoromethyl-phenyl)-pyridin-4-yl]-acetic acid]"
3,12,"CC(C)CC(C(=O)O)c1cc(-c2ccc(C(F)(F)F)cc2)nc(-c2cccc(F)c2F)c1 (stereo not drawn) [Example 21, 2-[2-(2,3-Difluoro-phenyl)-6-(4-trifluoromethyl-phenyl)-pyridin-4-yl]-4-methyl-pentanoic acid]"

# Same assay, conditions: SKNBE2 cells carrying APP 695-wild type
row,EC50 [µM],SMILES
1,0.27,"CC(C)CC(C(=O)O)c1cc(-c2ccc(C(F)(F)F)cc2)nc(-c2cc(C(F)(F)F)cc(C(F)(F)F)c2)c1 (stereo not drawn) [Example 6, 2-[2-(3,5-Bis-trifluoromethyl-phenyl)-6-(4-trifluoromethyl-phenyl)-pyridin-4-yl]-4-methyl-pentanoic acid]"
2,1.29,"CC(C)CCN(c1ccc(C(C)(C)C)cc1)c1cc(CC(=O)O)cc(-c2ccc(C(F)(F)F)cc2)n1 [Example 47, [2-[(4-tert-Butyl-phenyl)-(3-methyl-butyl)-amino]-6-(4-trifluoromethyl-phenyl)-pyridin-4-yl]-acetic acid]"
